One data set deals with β-adreno-receptor. The data set can be described thus: Inhibition of histamine-induced bronchoconstriction (bronchial resistance, Konzett-Rossler method) in anesthetized dogs; β-adreno-receptor stimulating activity. The format is in vivo, dog (male hybrid adult dogs). As to conditions: femoral vein, 1 minute before histamine 10 mg/kg. The method, then:
The stimulating activity of the compounds of this invention on β-adreno-receptor was determined as follows:
Male hybrid adult dogs, weighing 10 to 15 kg were anesthesized with 30 mg/kg of body weight of sodium pentobarbital administered intravenously. Each of the anesthesized dogs were secured on its back and a cannula was inserted into the trachea. Artificial respiration was conducted using a device according to the Konzett-Rossler method (Konzett H. & Rossler R., "Versuchsanordnug zu Untersuchungen an der Bronchial Moskolatur", Arch. Exp. Path., Pharmack, 195, 71 - 74, 27 - 40 (1940)). The volume of the overflowing air at the time of inhalation was measured through a pneumotachometer to determine the bronchial resistance and the values obtained were recorded on a polygraph.
In the above experiment, histamine was employed as a bronchoconstrictor at a dosage level of 10 mg/kg of body weight, and an aqueous solution containing each of the test compounds and controls shown in Table 1 below was then administered to each of the anesthesized dogs through the femoral vein at various dosage levels shown in Table 1 below 1 minute before the administration of the histamine. Sodium pentobarbital was infused during the experiment at a dosage level of 4 mg/kg of body weight/hr using an automatic injector in order to inhibit spontaneous respiration and to keep the anesthetic condition constant over the test period.

A further data set in a line: in vivo. As to conditions: rat, male rats (dd strain), fasted 12 hours.

The source of these data is patent US3994901A, “5-[1-Hydroxy-2-(s ubstituted-amino)]alkyl-8-hydroxy-3,4-dihydrocarbostyril derivatives” (Otsuka Pharmaceutical Company Limited, priority 1974, dated 1976).

Structures can show the parent of a compound that is named as a salt.

For `CC(C)NCC(O)c1ccc(O)c(O)c1` (stereo not drawn) [Isoproterenol], the “Bronchial Resistance (%)” value in the data set with β-adreno-receptor (dose 0.03 ug/Kg) came out at 16.6%; with β-adreno-receptor (dose 1.0 ug/Kg), 100%.
On to `CC(C)(C)NCC(O)c1ccc(O)c(CO)c1` (stereo not drawn) [Salbutamol], for which the “Bronchial Resistance (%)” value is 0% with β-adreno-receptor (dose 0.01 ug/Kg); 0% in the data set with β-adreno-receptor (dose 0.03 ug/Kg); 16.6% in the data set on β-adreno-receptor (dose 0.1 ug/Kg); 33.3% with β-adreno-receptor (dose 0.3 ug/Kg); 66.6% in the data set on β-adreno-receptor (dose 1.0 ug/Kg); 100% in the data set with β-adreno-receptor (dose 3.0 ug/Kg).
In the case of `CC(C)NCC(O)c1cc(O)cc(O)c1` (stereo not drawn) [Metaproterenol Sulfate (Arotec)], the “Bronchial Resistance (%)” value stood at 0% in the data set with β-adreno-receptor (dose 0.01 ug/Kg); 0% in the data set on β-adreno-receptor (dose 0.03 ug/Kg); 2.7% in the data set with β-adreno-receptor (dose 0.1 ug/Kg); 11.1% in the data set with β-adreno-receptor (dose 0.3 ug/Kg); 27.5% in the data set with β-adreno-receptor (dose 1.0 ug/Kg); 50.0% in the data set on β-adreno-receptor (dose 3.0 ug/Kg). Further, the results for the “Bronchial Resistance (%)” value in the data set on β-adreno-receptor (dose 10 ug/Kg) and with β-adreno-receptor (dose 30 ug/Kg) were 88.3% and 100%, respectively.
Turning to `CCC(NC(C)C)C(O)c1ccc(O)c2c1CCC(=O)N2` (stereo not drawn) [5-(1-Hydroxy-2-isopropylamino)butyl-8-hydroxy-3,4-dihydrocarbostyril], the LD50 in the data set “in vivo” (iv, I.v.) is 81.5 mg/kg; in the data set “in vivo” (po) it was 830 mg/kg.
For `CC(C)NCC(O)c1ccc(O)c2ncccc12` (stereo not drawn) [Quinterenol], the “Bronchial Resistance (%)” value in the data set on β-adreno-receptor (dose 0.01 ug/Kg), in the data set with β-adreno-receptor (dose 0.03 ug/Kg), in the data set on β-adreno-receptor (dose 0.1 ug/Kg), in the data set with β-adreno-receptor (dose 0.3 ug/Kg), with β-adreno-receptor (dose 1.0 ug/Kg) and in the data set on β-adreno-receptor (dose 3.0 ug/Kg) was 0% each time. Further, the figures for the “Bronchial Resistance (%)” value with β-adreno-receptor (dose 10 ug/Kg), in the data set with β-adreno-receptor (dose 30 ug/Kg) and with β-adreno-receptor (dose 100 ug/Kg) were 0%, 7.6% and 15.3%, respectively.

What is called LD50 is the dose expected to kill half of the subjects tested. Higher therefore signals lower toxicity.
